Among the data in patent publication US10683289B2, “Apoptosis signal-regulating kinase 1 inhibitors and methods of use thereof” (ENANTA PHARMACEUTICALS, INC., priority 2018, dated 2020) are IC50 values, retold here.

Some results are limits rather than exact numbers.

The target of the experiment is ASK1 (Homo sapiens (Human), UniProt Q99683). The experiment can be described thus: HTRF KinEASE Assay, inhibition of ASK1. The format is biochemical. The settings on record: 5 nM ASK1 kinase, 1 uM STK3 peptide substrate, 100 uM ATP, TR-FRET; read-out: IC50 range. Here is the method: HTRF® KinEASE™ Assay ASK1 was purchased from Thermofisher (Catalogue # PV4011), ATP was purchased from Sigma (Catalogue # A7699), HTRF® KinEASE™ Assay System was obtained from Cisbio (Bedford, Mass.). ½ Area plate was purchased from Perkin Elmer (Catalogue # #6005560). HTRF® KinEASE™-STK is a generic method for measuring serine/threonine kinase activities using a time-resolved fluorescence resonance energy transfer (TR-FRET) immunoassay. […] The test compound, 1 uM STK3 peptide substrate, and 5 nM of ASK1 kinase are incubated with kinase reaction buffer containing 50 mM HEPES pH 7.5, 0.01% BRIJ-35, 10 mM MgCl2, and 1 mM EGTA for 30 minutes. 100 uM ATP is added to start kinase reaction and incubated for 3 hours. The STK3-antibody labeled with Eu^3+-Cryptate and 125 nM streptavidin-XL665 are mixed in a single addition with stop reagents provided by the Cisbio kit used to stop the kinase reaction. Fluorescence is detected using an Envision Multilabeled 2014 reader from PerkinElmer. The Fluorescence is measured at 615 nm (Cryptate) and 665 nm (XL665) and a ratio of 665 nm/615 nm is calculated for each well. The resulting TR-FRET is proportional to the phosphorylation level. […] IC50 was determined by XLfit 5.3. By using above method, the inhibition of ASK1 was evaluated for the compounds of Formula (I).
Sequence of ASK1 (Q99683 whole entry): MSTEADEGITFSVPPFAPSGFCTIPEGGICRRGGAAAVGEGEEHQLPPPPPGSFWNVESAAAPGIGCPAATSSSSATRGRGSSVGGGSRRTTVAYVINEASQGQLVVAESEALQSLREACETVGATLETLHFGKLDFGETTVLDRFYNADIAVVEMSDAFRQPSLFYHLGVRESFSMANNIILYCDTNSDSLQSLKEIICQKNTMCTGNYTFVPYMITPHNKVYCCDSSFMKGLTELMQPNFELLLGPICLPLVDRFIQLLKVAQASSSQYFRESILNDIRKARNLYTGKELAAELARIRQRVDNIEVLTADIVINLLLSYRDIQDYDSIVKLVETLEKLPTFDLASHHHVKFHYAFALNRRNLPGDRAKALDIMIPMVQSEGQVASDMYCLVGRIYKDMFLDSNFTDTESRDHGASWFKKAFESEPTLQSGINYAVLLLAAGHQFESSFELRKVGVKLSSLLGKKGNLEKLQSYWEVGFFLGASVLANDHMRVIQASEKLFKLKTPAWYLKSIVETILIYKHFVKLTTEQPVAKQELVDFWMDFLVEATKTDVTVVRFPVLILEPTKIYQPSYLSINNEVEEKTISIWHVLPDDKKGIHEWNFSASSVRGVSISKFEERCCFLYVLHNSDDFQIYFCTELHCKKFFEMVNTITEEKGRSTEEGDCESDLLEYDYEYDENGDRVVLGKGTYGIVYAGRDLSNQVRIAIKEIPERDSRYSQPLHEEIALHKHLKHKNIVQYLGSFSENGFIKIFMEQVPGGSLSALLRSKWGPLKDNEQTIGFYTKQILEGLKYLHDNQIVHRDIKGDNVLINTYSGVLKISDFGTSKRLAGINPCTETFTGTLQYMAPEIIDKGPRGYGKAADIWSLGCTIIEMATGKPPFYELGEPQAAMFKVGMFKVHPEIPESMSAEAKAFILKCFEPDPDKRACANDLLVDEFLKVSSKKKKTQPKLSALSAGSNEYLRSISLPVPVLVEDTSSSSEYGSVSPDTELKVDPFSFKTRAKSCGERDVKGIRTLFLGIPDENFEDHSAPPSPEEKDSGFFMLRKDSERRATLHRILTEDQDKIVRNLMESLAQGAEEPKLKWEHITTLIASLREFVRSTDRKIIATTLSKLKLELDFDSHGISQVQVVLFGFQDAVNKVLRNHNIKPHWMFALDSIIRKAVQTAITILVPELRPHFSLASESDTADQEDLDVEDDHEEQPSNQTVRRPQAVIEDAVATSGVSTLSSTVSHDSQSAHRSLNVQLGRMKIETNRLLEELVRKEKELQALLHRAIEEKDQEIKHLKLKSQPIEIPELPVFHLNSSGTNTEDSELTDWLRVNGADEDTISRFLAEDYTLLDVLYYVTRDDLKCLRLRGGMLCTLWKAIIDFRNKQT
As to `CC(C)n1nnnc1-c1cccc(NC(=O)c2cc3c(cc2F)CN(C(C)(C)C)S3(=O)=O)n1` [Example 1, 2-(tert-butyl)-5-fluoro-N-(6-(1-isopropyl-1H-tetrazol-5-yl)pyridin-2-yl)-2,3-dihydrobenzo[d]isothiazole-6-carboxamide 1,1-dioxide], the IC50 was in the range of 100 to 1000 nM.

Turning to `C[C@H](CO)n1nnnc1-c1cccc(NC(=O)c2cc3c(cc2F)CN(C(C)(C)C)S3(=O)=O)n1` [Example 2, (R)-2-(tert-butyl)-5-fluoro-N-(6-(1-(1-hydroxypropan-2-yl)-1H-tetrazol-5-yl)pyridin-2-yl)-2,3-dihydrobenzo[d]isothiazole-6-carboxamide 1,1-dioxide], the IC50 lay within 10 to 100 nM.

For `CC(C)n1nnnc1-c1cccc(NC(=O)c2cc3c(cc2F)CCN(C(C)(C)C)S3(=O)=O)n1` [Example 4, 2-(tert-butyl)-6-fluoro-N-(6-(1-isopropyl-1H-tetrazol-5-yl)pyridin-2-yl)-3,4-dihydro-2H-benzo[e][1,2]thiazine-7-carboxamide 1,1-dioxide], the IC50 lay within 10 to 100 nM.

Regarding `COc1cc2c(cc1C(=O)Nc1cccc(-c3nnnn3C(C)C)n1)S(=O)(=O)N(C(C)(C)C)C2` [Example 6, 2-(tert-butyl)-N-(6-(1-isopropyl-1H-tetrazol-5-yl)pyridin-2-yl)-5-methoxy-2,3-dihydrobenzo[d]isothiazole-6-carboxamide 1,1-dioxide], the IC50 is above 1000 nM.

`CC(C)N1Cc2cc(F)c(C(=O)Nc3cccc(-c4nncn4C(C)C)n3)cc2S1(=O)=O` [Example 7, 5-fluoro-2-isopropyl-N-(6-(4-isopropyl-4H-1,2,4-triazol-3-yl)pyridin-2-yl)-2,3-dihydrobenzo[d]isothiazole-6-carboxamide 1,1-dioxide]: the IC50 is 10 to 100 nM.

For the compound `COc1cc2c(cc1C(=O)Nc1cccc(-c3nncn3C(C)C)n1)S(=O)(=O)N(C(C)C)C2` [Example 8, 2-isopropyl-N-(6-(4-isopropyl-4H-1,2,4-triazol-3-yl)pyridin-2-yl)-5-methoxy-2,3-dihydrobenzo[d]isothiazole-6-carboxamide 1,1-dioxide], the IC50 is below 1.5 nM.

For the compound `CC(C)N1Cc2cc(F)c(C(=O)Nc3cccc(-c4nnnn4[C@H](C)CO)n3)cc2S1(=O)=O` [Example 9, (R)-5-fluoro-N-(6-(1-(1-hydroxypropan-2-yl)-1H-tetrazol-5-yl)pyridin-2-yl)-2-isopropyl-2,3-dihydrobenzo[d]isothiazole-6-carboxamide 1,1-dioxide], the IC50 was 10 to 100 nM.

Take `COc1cc2c(cc1C(=O)Nc1cccc(-c3nnnn3[C@H](C)CO)n1)S(=O)(=O)N(C(C)C)C2` [Example 10, (R)—N-(6-(1-(1-hydroxypropan-2-yl)-1H-tetrazol-5-yl)pyridin-2-yl)-2-isopropyl-5-methoxy-2,3-dihydrobenzo[d]isothiazole-6-carboxamide 1,1-dioxide]: the IC50 was below 1.5 nM.

As for `CC(C)N1Cc2cc(OCC(F)(F)F)c(C(=O)Nc3cccc(-c4nnnn4[C@H](C)CO)n3)cc2S1(=O)=O` [Example 12, (R)—N-(6-(1-(1-hydroxypropan-2-yl)-1H-tetrazol-5-yl)pyridin-2-yl)-2-isopropyl-5-(2,2,2-trifluoroethoxy)-2,3-dihydrobenzo[d]isothiazole-6-carboxamide 1,1-dioxide], the IC50 lay within 100 to 1000 nM.

In the case of `CC(C)Oc1cc2c(cc1C(=O)Nc1cccc(-c3nnnn3[C@H](C)CO)n1)S(=O)(=O)N(C(C)C)C2` [Example 13, (R)—N-(6-(1-(1-hydroxypropan-2-yl)-1H-tetrazol-5-yl)pyridin-2-yl)-5-isopropoxy-2-isopropyl-2,3-dihydrobenzo[d]isothiazole-6-carboxamide 1,1-dioxide], the IC50 fell in the range of 10 to 100 nM.

For `CC(C)N1Cc2cc(N(C)C)c(C(=O)Nc3cccc(-c4nnnn4[C@H](C)CO)n3)cc2S1(=O)=O` [Example 14, (R)-5-(dimethylamino)-N-(6-(1-(1-hydroxypropan-2-yl)-1H-tetrazol-5-yl)pyridin-2-yl)-2-isopropyl-2,3-dihydrobenzo[d]isothiazole-6-carboxamide 1,1-dioxide], the IC50 fell in the range of 10 to 100 nM.

Turning to `CC(C)n1cnnc1-c1cccc(NC(=O)c2cc3c(cc2F)CN(C)S3(=O)=O)n1` [Example 15, 5-fluoro-N-(6-(4-isopropyl-4H-1,2,4-triazol-3-yl)pyridin-2-yl)-2-methyl-2,3-dihydrobenzo[d]isothiazole-6-carboxamide 1,1-dioxide], the IC50 lay in the range of 10 to 100 nM.

`COc1cc2c(cc1C(=O)Nc1cccc(-c3nncn3C(C)C)n1)S(=O)(=O)N(C)C2` [Example 16, N-(6-(4-isopropyl-4H-1,2,4-triazol-3-yl)pyridin-2-yl)-5-methoxy-2-methyl-2,3-dihydrobenzo[d]isothiazole-6-carboxamide 1,1-dioxide]: the IC50 was below 1.5 nM.

Turning to `C[C@H](CO)n1nnnc1-c1cccc(NC(=O)c2cc3c(cc2F)CN(C)S3(=O)=O)n1` [Example 17, (R)-5-fluoro-N-(6-(1-(1-hydroxypropan-2-yl)-1H-tetrazol-5-yl)pyridin-2-yl)-2-methyl-2,3-dihydrobenzo[d]isothiazole-6-carboxamide 1,1-dioxide], the half-maximal inhibitory concentration (IC50) was in the range of 10 to 100 nM.

On to `COc1cc2c(cc1C(=O)Nc1cccc(-c3nnnn3[C@H](C)CO)n1)S(=O)(=O)N(C)C2` [Example 18, (R)—N-(6-(1-(1-hydroxypropan-2-yl)-1H-tetrazol-5-yl)pyridin-2-yl)-5-methoxy-2-methyl-2,3-dihydrobenzo[d]isothiazole-6-carboxamide 1,1-dioxide], for which the IC50 is below 1.5 nM.

Consider `COCCN1Cc2cc(F)c(C(=O)Nc3cccc(-c4nncn4C(C)C)n3)cc2S1(=O)=O` [Example 19, 5-fluoro-N-(6-(4-isopropyl-4H-1,2,4-triazol-3-yl)pyridin-2-yl)-2-(2-methoxyethyl)-2,3-dihydrobenzo[d]isothiazole-6-carboxamide 1,1-dioxide], for which the IC50 fell in the range of 10 to 100 nM.

With `COCCN1Cc2cc(OC)c(C(=O)Nc3cccc(-c4nncn4C(C)C)n3)cc2S1(=O)=O` [Example 20, N-(6-(4-isopropyl-4H-1,2,4-triazol-3-yl)pyridin-2-yl)-5-methoxy-2-(2-methoxyethyl)-2,3-dihydrobenzo[d]isothiazole-6-carboxamide 1,1-dioxide], the IC50 was in the range of 10 to 100 nM.

Regarding `COCCN1Cc2cc(F)c(C(=O)Nc3cccc(-c4nnnn4[C@H](C)CO)n3)cc2S1(=O)=O` [Example 21, (R)-5-fluoro-N-(6-(1-(1-hydroxypropan-2-yl)-1H-tetrazol-5-yl)pyridin-2-yl)-2-(2-methoxyethyl)-2,3-dihydrobenzo[d]isothiazole-6-carboxamide 1,1-dioxide], the half-maximal inhibitory concentration (IC50) was below 1.5 nM.

In the case of `COCCN1Cc2cc(OC)c(C(=O)Nc3cccc(-c4nnnn4[C@H](C)CO)n3)cc2S1(=O)=O` [Example 22, (R)—N-(6-(1-(1-hydroxypropan-2-yl)-1H-tetrazol-5-yl)pyridin-2-yl)-5-methoxy-2-(2-methoxyethyl)-2,3-dihydrobenzo[d]isothiazole-6-carboxamide 1,1-dioxide], the IC50 is below 1.5 nM.
